Data set [1] deals with TRPM8. Particulars: cited from earlier work.
Data set [2] has as its system TRPV1. The data set is described as follows: whole-cell patch-clamp recording in response to a voltage ramp. The format is cell-based.
Text: (b) Representative whole- cell patch- clamp recording of capsaicin activation of TRPV1 in response to a voltage ramp.
Data set [3] concerns the target T1, wild-type TRPM8 (Mus musculus, UniProt Q8R4D5).
T1 construct: expressed in transfected cells; host or cells: HEK293T
The data set is described as follows: whole-cell patch-clamp recording of ligand activation. The format is cell-based. As for the experimental part:
(§1) Murine TRPM8 was used in this study. Point mutations were made by Fast Mutagenesis Kit V2 (SBS Genetech). Primers used to generate point mutations are summarized in Supplementary Table 2.
Cells were transiently transfected with cDNA constructs by Lipofectamine 3000 (Life Technologies) following the manufacturer’s protocol. Patch-clamp recordings were performed 1–2 days after transfection.
(§2) Patch-clamp recordings were performed with a HEKA EPC10 amplifier controlled by PatchMaster software (HEKA). Whole-cell recordings were performed at ±80 mV. Patch pipettes were prepared from borosilicate glass and fire-polished to resistance of ~4 MΩ. For whole-cell recording, serial resistance was compensated by 60%. For single-channel recordings, patch pipettes were fire-polished to a higher resistance of 6-to-10 MΩ and then recorded in the inside-out configuration. To maximize the chance of obtaining a patch with only one channel, single-channel recordings were performed about 8 h after transfection. A solution with 130 mM NaCl, 10 mM glucose, 0.2 mM EDTA, and 3 mM HEPES (pH 7.2) was used in both bath and pipette for either whole-cell or single-channel recordings. Membrane potential was clamped at +80 mV for single-channel recordings. Current was sampled at 10 kHz and filtered at 2.9 kHz. All recordings were performed at room temperature (22 °C) with the maximum variation of 1 °C.
(§3) Ligands such as menthol and its analogs were perfused to membrane patch by a gravity-driven system (RSC-200, Bio-Logic). Bath and ligand solution were delivered through separate tubes to minimize the mixing of solutions. Patch pipette was placed in front of the perfusion tube outlet.
(§4) Data from whole-cell recordings were analyzed in Igor Pro version 6.1 (WaveMatrix). EC50 values were derived from fitting a Hill equation to the concentration–response relationship. […] To distinguish these possibilities, dissociation constant (Kd) for ligand binding was estimated assuming the following gating scheme:1 C0↔KdC1↔LO, where L is the equilibrium constant for the final closed-to-open transition.

Data set [4] has as its target T2, TRPM8 Y745F (Mus musculus, UniProt Q8R4D5, Y745F).
T2 construct: expressed in transfected cells; host or cells: HEK293T
The data set is described as follows: whole-cell patch-clamp and thermodynamic mutant cycle analysis. The format is cell-based. As for the experimental part:
Murine TRPM8 was used in this study. Point mutations were made by Fast Mutagenesis Kit V2 (SBS Genetech). Primers used to generate point mutations are summarized in Supplementary Table 2. All mutations were confirmed by sequencing.
(§5) HEK293T cells purchased from Kunming Cell Bank, Kunming Institute of Zoology, Chinese Academy of Sciences (ATCC, CRL-3216) were cultured in Dulbecco’s modified Eagle’s medium supplemented with 20 mM L-glutamine and 10% fetal bovine serum. Cells were transiently transfected with cDNA constructs by Lipofectamine 3000 (Life Technologies) following the manufacturer’s protocol. Patch-clamp recordings were performed 1–2 days after transfection.
as §2, §3
Data from whole-cell recordings were analyzed in Igor Pro version 6.1 (WaveMatrix). EC50 values were derived from fitting a Hill equation to the concentration–response relationship. Changes in EC50 by point mutation may be caused by either perturbation of ligand bind or channel gating or both. To distinguish these possibilities, dissociation constant (Kd) for ligand binding was estimated assuming the following gating scheme:1 C0↔KdC1↔LO, where L is the equilibrium constant for the final closed-to-open transition.
(§6) To perform thermodynamic cycle analysis, Kd values of four channel-ligand combinations (WT channel, menthol: Kd _1; Mutant channel, menthol: Kd _2; WT channel, menthol analog: Kd _3; Mutant channel, menthol analog: Kd _4) were determined separately. The strength of coupling was determined by the coupling energy (kT multiplied by LnΩ, where k is the Boltzmann constant and T is temperature in Kelvin). LnΩ was calculated by Eq. (2) as[51]2 LnΩ=LnKd_1⋅Kd_4/Kd_2⋅Kd_3.

Data set [5] deals with T3, TRPM8 D802I (Mus musculus, UniProt Q8R4D5, D802I).
T3 construct: expressed in transfected cells; host or cells: HEK293T
Described as above. The format is cell-based. As for the experimental part: as §1, §5, §2, §3, §4, §6

In data set [6] the target is T4, TRPM8 D802L (Mus musculus, UniProt Q8R4D5, D802L).
T4 construct: expressed in transfected cells; host or cells: HEK293T
The data set is described as above. The format is cell-based. The protocol:
as §1, §5, §2, §3, §4, §6

Data set [7] has as its target T5, TRPM8 D802S (Mus musculus, UniProt Q8R4D5, D802S).
T5 construct: expressed in transfected cells; host or cells: HEK293T
Described as above. The format is cell-based. As for the experimental part:
as §1, §5, §2, §3, §4, §6

Data set [8] has as its target T6, TRPM8 L797A (Mus musculus, UniProt Q8R4D5, L797A).
T6 construct: expressed in transfected cells; host or cells: HEK293T
The data set is described as above. The format is cell-based. The protocol: as §1, §5, §2, §3, §4, §6

Data set [9] concerns the target T7, TRPM8 R842K (Mus musculus, UniProt Q8R4D5, R842K).
T7 construct: expressed in transfected cells; host or cells: HEK293T
The description is as above. In kind it is cell-based. The protocol: as §1, §5, §2, §3, §4, §6

Data set [10] concerns the target T8, TRPM8 W798A (Mus musculus, UniProt Q8R4D5, W798A).
T8 construct: expressed in transfected cells; host or cells: HEK293T
Described as above. The format is cell-based. The protocol:
as §1, §5, §2, §3, §4, §6

Data set [11] addresses T9, TRPM8 Y1005F (Mus musculus, UniProt Q8R4D5, Y1005F).
T9 construct: expressed in transfected cells; host or cells: HEK293T
The description is as above. In kind it is cell-based. As for the experimental part: as §1, §5, §2, §3, §4, §6

In data set [12] the target is T1, wild-type TRPM8. As to the kind of experiment: open probability from noise analysis of macroscopic current and single-channel recordings. In kind it is cell-based. The conditions noted are these: wild-type TRPM8; near saturating concentration (menthol 500 µM). As for the experimental part: as §2
From single-channel recordings, the open probability (Po) was calculated after events detection with a hidden Markov approach in the software QuB[49] (http://www.qub.buffalo.edu/). A dead time of 0.32 ms was imposed. As a complementary approach, Po was also estimated from noise analysis[52] of whole-cell recordings. Briefly, the mean current amplitude (I), the squared deviations in current amplitude from the mean value (σ^2), and the single-channel current (i) were measured experimentally from a membrane patch of ion channels. Then the number of ion channels clamped in that patch (N) was determined as3 N=I^2/i⋅I−σ^2.
The maximum current when each of ion channel is at the open state with a Po of 1 is equal to i × N. Then the open probability was calculated as the ratio between the measured macroscopic current and the maximum current calculated by noise analysis. To estimate channel conductance, current amplitude was estimated from all-point histogram of single-channel recordings.

Setting [13] is: mutant cycle menthol vs labelled analog.

Results on three compounds are retold here after PMC7391767, “Molecular mechanisms underlying menthol binding and activation of TRPM8 ion channel” (Nature Communications, 2020).

Where “and” joins values, the source holds several entries; their conditions need not be identical. Equal values may be shown once. Entries after “also recorded” stand apart in the source; their conditions may differ. Read-outs that look alike come from different tables or passages of the source.

T9 sequence (Q8R4D5 whole entry Y1005F): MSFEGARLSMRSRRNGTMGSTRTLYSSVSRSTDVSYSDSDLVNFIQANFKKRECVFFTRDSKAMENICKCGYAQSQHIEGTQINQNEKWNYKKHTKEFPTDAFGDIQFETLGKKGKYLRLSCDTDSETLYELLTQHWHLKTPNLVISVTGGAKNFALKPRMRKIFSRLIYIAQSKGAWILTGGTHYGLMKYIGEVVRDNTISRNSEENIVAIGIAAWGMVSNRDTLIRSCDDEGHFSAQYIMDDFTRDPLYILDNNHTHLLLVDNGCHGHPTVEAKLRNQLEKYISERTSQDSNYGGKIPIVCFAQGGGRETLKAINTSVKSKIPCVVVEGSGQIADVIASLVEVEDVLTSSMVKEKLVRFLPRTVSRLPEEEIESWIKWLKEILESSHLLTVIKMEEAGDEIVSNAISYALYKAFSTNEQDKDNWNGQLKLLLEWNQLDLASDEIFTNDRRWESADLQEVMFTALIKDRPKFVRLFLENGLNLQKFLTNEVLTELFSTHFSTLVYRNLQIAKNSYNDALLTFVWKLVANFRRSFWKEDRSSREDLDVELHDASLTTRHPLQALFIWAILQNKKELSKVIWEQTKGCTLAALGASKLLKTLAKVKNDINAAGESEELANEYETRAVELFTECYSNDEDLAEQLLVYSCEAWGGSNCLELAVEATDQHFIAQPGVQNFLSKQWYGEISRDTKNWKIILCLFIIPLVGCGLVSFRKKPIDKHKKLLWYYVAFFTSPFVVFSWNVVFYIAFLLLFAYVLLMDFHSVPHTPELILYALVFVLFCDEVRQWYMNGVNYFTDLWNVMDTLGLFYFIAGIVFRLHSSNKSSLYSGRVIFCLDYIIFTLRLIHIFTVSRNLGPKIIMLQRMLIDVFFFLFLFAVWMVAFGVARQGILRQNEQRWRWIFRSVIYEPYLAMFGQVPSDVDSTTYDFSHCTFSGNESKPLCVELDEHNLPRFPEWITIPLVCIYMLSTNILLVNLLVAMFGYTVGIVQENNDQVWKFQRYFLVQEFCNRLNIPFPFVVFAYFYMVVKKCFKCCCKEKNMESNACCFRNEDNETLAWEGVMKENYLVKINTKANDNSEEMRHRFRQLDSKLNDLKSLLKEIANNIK
T3 sequence (Q8R4D5 whole entry D802I): as the sequence (Q8R4D5 whole entry Y1005F) above, with D802I, F1005Y counted along it
T6 sequence (Q8R4D5 whole entry L797A): as the sequence (Q8R4D5 whole entry Y1005F) above, with L797A, F1005Y counted along it
T7 sequence (Q8R4D5 whole entry R842K): as the sequence (Q8R4D5 whole entry Y1005F) above, with R842K, F1005Y counted along it
T4 sequence (Q8R4D5 whole entry D802L): as the sequence (Q8R4D5 whole entry Y1005F) above, with D802L, F1005Y counted along it
T1 sequence (Q8R4D5 whole entry): as the sequence (Q8R4D5 whole entry Y1005F) above, with F1005Y counted along it
T8 sequence (Q8R4D5 whole entry W798A): as the sequence (Q8R4D5 whole entry Y1005F) above, with W798A, F1005Y counted along it
T2 sequence (Q8R4D5 whole entry Y745F): as the sequence (Q8R4D5 whole entry Y1005F) above, with Y745F, F1005Y counted along it
T5 sequence (Q8R4D5 whole entry D802S): as the sequence (Q8R4D5 whole entry Y1005F) above, with D802S, F1005Y counted along it

In the case of `C[C@H](c1ccc(F)cc1)N(Cc1cccc(C(=O)O)c1)C(=O)c1cnc2ccccc2c1` [PF-05105679], in data set [1], the “effect on cold-related pain” value is listed as “effectively suppress cold-related pain”. For the same compound, in [1] (patients, clinical trials), the “temperature sensation (side effect)” value is “side effects of altering temperature sensation; also recorded: altered temperature sensation in patients”.

`COc1cc(CNC(=O)CCCC/C=C/C(C)C)ccc1O` [capsaicin]: in data set [2], the “effect of deep hyperpolarization on ligand-activated channel” value is on record as “not antagonized”.

As to `CC(C)[C@@H]1CC[C@@H](C)CC1=O` [menthone, (−)-menthone], the “L (equilibrium constant between closed and open states upon ligand binding), Ave” value is recorded as 0.9574 in [3] (WT) and 0.246 in [9]. Besides, the “L, single recording” value in data set [3] (WT) is 1.13 and 1.132 and 0.6097. The “Ratio X1 (Kd menthol / Kd labelled analog)” value in [3] (WT) came out at 0.62. Also, the “concentration–response curve value, ave” value is recorded as 0.02705 in data set [3] (WT, 100 microM); 0.1118 in data set [3] (WT, 700 microM); 0.223 in [3] (WT, 800 microM); 0.4153 in data set [3] (WT, 1000 microM); 0.5864 in data set [3] (WT, 5000 microM); 0.596 in data set [3] (WT, 10000 microM). For the same compound, the “concentration–response curve value, ave” value in data set [9] (800 microM) is given as 0.04014; in [9] (1000 microM) it was 0.05391; in [9] (5000 microM), 0.1385. The “concentration–response curve value, single recording” value in data set [3] (WT, 100 microM) is 0.02655 and 0.02755; in [3] (WT, 700 microM), 0.1118; in [3] (WT, 1000 microM), 0.3958 and 0.4096 and 0.4406; in data set [3] (WT, 5000 microM), 0.584 and 0.6851 and 0.4903; in [3] (WT, 10000 microM), 0.562 and 0.63; in data set [9] (800 microM) it was 0.05631 and 0.03329 and 0.03847 and 0.03248. Further, the “concentration–response curve value, single recording” value in data set [9] (1000 microM) was 0.07259 and 0.05411 and 0.04679 and 0.04215. The equilibrium dissociation constant (Kd) in [3] (WT, read-out: Kd, single recording) is 1400 µM and 2020 µM and 1340 µM; in data set [9] (calculated from concentration–response curves, read-out: Kd, Ave), 1780 µM; in data set [9] (read-out: Kd, single recording), 1120 µM and 2990 µM and 1510 µM and 1500 µM. In addition, a half-maximal effect in data set [3] (wild-type TRPM8, Hill equation fit of concentration–response, patch-clamp) (EC50) was put at 813 ± 84.3 µM. The “Ratio X2 (Kd menthol / Kd labelled analog)” value in [4] turned out to be 1.11; in data set [5], 1.35; in data set [6] it was 3.06; in data set [7], 2.58; in data set [8], 1.22; in [9] it was 4.90. In addition, the “Ratio X2 (Kd menthol / Kd labelled analog)” value is given as 0.21 in data set [10] and 0.15 in [11]. Also, the “Omega(X1/X2)” value in [4] (menthol vs labelled analog) was determined as 0.56; in data set [5] (menthol vs labelled analog) it was 0.46; in data set [6] (menthol vs labelled analog), 0.20; in data set [7] (menthol vs labelled analog), 0.24; in data set [8] (menthol vs labelled analog), 0.51; in [9] (menthol vs labelled analog), 0.13. Further, the results for the “Omega(X1/X2)” value in data set [10] (menthol vs labelled analog) and in [11] (menthol vs labelled analog) were 2.89 and 4.12, respectively. For the same compound, the “Coupling Energy” value in data set [4] (setting [13]) stood at 0.59 kT; in data set [5] (setting [13]), 0.78 kT; in data set [6] (setting [13]), 1.60 kT; in [7] (setting [13]), 1.42 kT; in data set [8] (setting [13]) it was 0.67 kT; in [9] (setting [13]), 2.07 kT. Besides, the entries for the “Coupling Energy” value in data set [10] (setting [13]) and in [11] (setting [13]) were 1.06 kT and 1.42 kT, respectively. Further, the “maximum open probability (Po max)” value in data set [12] is reported as 0.48 ± 0.05.
